This note sets out measurements from US20240308968A1, “FUNGICIDAL SUBSTITUTED HETEROCYCLES” (FMC Corporation, priority 2021, published 2024).

In one series the test system is Phakopsora pachyrhizi. As to the kind of experiment: Test D: preventive spray on soybean seedlings, Asian soybean rust disease rating. The class given is in vivo. Particulars: Phakopsora pachyrhizi, 216 h, 50 ppm, 100 = 100% disease control, 0 = no control. The method in brief: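 Seedlings of soybean were challenged with rust spores one day after a run-off spray of test suspension (acetone/water 50/50, 50–250 ppm PEG400); after 24 h saturated humidity and 8 days growth, both at 22° C, disease was scored visually.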

In a further series the test system is Alternaria solani. Nature of the series: Test F: preventive spray on tomato seedlings, tomato early blight disease rating. The class given is in vivo. The settings on record: Alternaria solani, 120 h, 50 ppm, 100 = 100% disease control, 0 = no control. An outline of the steps: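 Preventive test: a day after run-off spraying with acetone/water–PEG400 suspensions (ppm), seedlings received an A. solani spore inoculum. Incubation was 48 h at 27 °C in saturated air followed by 3 days in a 20 °C chamber. Visual scores express percent disease control versus untreated plants (0–100).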

The subject of series [1] is Puccinia recondita f. sp. Tritici. As to the kind of experiment: Test B: preventive spray on wheat seedlings, wheat leaf rust disease rating. The class given is in vivo. The settings on record: Puccinia recondita, 192 h, 50 ppm, 100 = 100% disease control, 0 = no control. An outline of the steps: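 Preventive test: one day after spraying wheat seedlings to run-off with ppm suspensions (acetone/water 1:1, 50-250 ppm PEG400), leaf rust spores were applied. Incubation was 24 h at saturation then 7 days at 20° C.; disease scored 0-100% control relative to untreated.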

The test system of the next series is Botrytis cinerea. As to the kind of experiment: Test E: preventive spray on tomato seedlings, tomato Botrytis disease rating. The class given is in vivo. Particulars: Botrytis cinerea, 120 h, 50 ppm, 100 = 100% disease control, 0 = no control. The method in brief: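 Preventive test: one day after spraying seedlings to run-off with test suspension (ppm in acetone/water, 50–250 ppm PEG400), B. cinerea spores applied. Incubation 48 h at 20 °C saturated humidity plus 3 days at 24 °C preceded visual rating as percent disease control versus controls.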

Series [2] deals with Blumeria graminis f. sp. Tritici. Nature of the series: Test C: preventive spray on wheat seedlings, wheat powdery mildew disease rating. The class given is in vivo. The settings on record: Blumeria graminis, 192 h, 50 ppm, 100 = 100% disease control, 0 = no control. The method in brief:
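Disease control scored visually after 8 days at 20° C, on a 0–100 scale versus untreated controls. Seedlings had received a preventive run-off spray one day before dusting with powdery mildew spores; compounds were suspended in acetone/water (50/50) containing 50–250 ppm PEG400.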

The subject of another series is Zymoseptoria tritici. Nature of the series: Test A: preventive spray on wheat seedlings, wheat leaf blotch disease rating. The class given is in vivo. Particulars: Zymoseptoria tritici, 456 h, 50 ppm, 100 = 100% disease control, 0 = no control. The method in brief:
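Disease scored after 17 days in a 20 °C growth chamber, following 48 h at 24 °C in saturated air after spore inoculation with Z. tritici. Inoculation came one day after wheat seedlings were sprayed to run-off with test suspension (acetone/water 50/50, 50–250 ppm PEG400).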

Each structure is given as a SMILES string.

As usually defined, the pest or weed control is how far the test organism was held down. For orientation: melting point means the temperature of the solid-liquid transition. `CCn1c(-c2ccc(F)cc2Cl)c(-c2cc(OC)cc(OC)c2Cl)cc(C#N)c1=O` [Compound 157, 5-(2-chloro-3,5-dimethoxyphenyl)-6-(2-chloro-4-fluorophenyl)-1,2-dihydro-1-ethyl-2-oxo-3-pyridinecarbonitrile] showed a melting point of 100 to 103 °C. In the series on Phakopsora pachyrhizi, this molecule yielded a pest or weed control at 50 ppm of 97%. Moreover, the pest or weed control at 50 ppm with Alternaria solani worked out at 98%. The molecule also came in with a pest or weed control at 50 ppm in series [1] of 100%. The pest or weed control at 50 ppm in the series on Botrytis cinerea amounted to 99%. The pest or weed control at 50 ppm in series [2] turned out to be 96%. Also, the pest or weed control at 50 ppm in the series with Zymoseptoria tritici came to 100%.
